# Measured values from patent US6500813B1, “Ophthalmic composition containing active vitamin D” (priority 1995, dated 2002).
# How the values were obtained:
# laser-irradiated cornea = assay: Test Example 3: corneal turbidity rating after excimer laser (PTK) irradiation in rabbits; format: in vivo, Japan white rabbits; conditions: 10^−7% solution, 20 μl/dose, 3 times/day over 14 days
# Experimental: In this test, 8 Japan white rabbits each weighing 2 kg were used. A laser beam was focused on the corneal center of the right eye of each animal using an excimer laser oscillator (available from Summit Technology Co. U.S.) under anesthesia. The laser beam irradiation was carried out according to the surface-incision mode (PTK), i.e., at an energy density of 165 mj/cm^2, a rate of incision to a depth of 0.25 μm/pulse, a diameter of the incised circular area of 4.5 mm and an irradiated pulse number of 300.
# These 8 test animals which had been irradiated with the laser beam were, at random, divided into two groups each comprising 4 animals, one of which constituted a drug-administered group and the other of which constituted a control group. […]
# After 24 hours from the laser irradiation, the drug-administered group and the control-group were treated by dropping, in the right eye, a 10^−7% active vitamin D-containing solution [22-oxa-1β,25-dihydroxy vitamin D3: OCT (available from Chugai Pharmaceutical Co., Ltd.)] and the OCT solvent base, respectively, at 20 μl/dose and 3 times/day over 14 days. After 7 and 15 days from the irradiation, the extent of the turbidity of each cornea was evaluated on the basis of the findings for the 8 animals observed under a slit lamp microscope. […]
# [1] = test system: laser-irradiated cornea (corneal epithelial cells); assay: Test Example 1: excimer laser (PTK) corneal incision in rabbits, slit lamp and light microscope observation; format: in vivo, Japan white rabbits
# Experimental: In this test, 6 Japan white rabbits each weighing 2 kg were used. After anesthetizing each animal by intramuscularly injecting an analgesic-anesthetic at the femoral regions thereof and by simultaneously dropping local anesthetic in the eyes, a laser beam was focused on the corneal center of the right eye using an excimer laser oscillator (available from Summit Technology Co. U.S.). The laser beam irradiation was carried out according to the surface-incision mode (PTK), i.e., at an energy density of 165 mj/cm^2, a rate of incision to a depth of 0.25 μm/pulse, an incised surface diameter of 4.5 mm and a pulse number of 300.
# After the laser beam irradiation, an eye drop and an ointment containing an antibiotic agent were administered to the eye. Three (Group A) out of these six animals were treated by dropping, in the right eye, an active vitamin D-containing solution (1 α-monohydroxy vitamin D: 0.01 μg/drop or 0.5 μg/ml; an alpha calcidol solution) in a rate of one drop (0.02 ml)/dose/day, starting from 24 hours after the laser beam irradiation. On the other hand, the remaining three (Group B) out of these six animals constituted a control group and were treated in the same manner by dropping, in the right eye, an ophthalmic buffer solution BSS at a rate of one drop/dose/day.
# After 4, 7 and 12 days from the laser beam irradiation, the right eyes of animals in Group A and Group B (one animal each) were observed under a slit lamp microscope, followed by slaughtering one animal in each Group and then enucleation of the eyeballs. The cornea was removed from the sclerocornea of each eyeball, followed by fixing through immersion in a Carnoa's solution for 4 hours, dehydration in dry ethanol, paraffin-embedded to form a corneal slice with a thickness of 4 μm, removing paraffin by xylol, carrying out the hematoxylin-eosin staining and/or PAS staining and observation of the corneal slice under a light microscope.
# [2] = test system: lens capsule, aqueous humor and intraocular lens; assay: Test Example 2: lens removal by ultrasonic emulsification and aspiration with intraocular lens transplantation in rabbits, slit lamp observation of turbidity; format: in vivo, Japan white house rabbits; conditions: for fibrin deposition in the anterior chamber: versus sesame oil control (animal C)
# From the text: In this test, three Japan white house rabbits each weighing 2 kg were used. After anesthetizing each animal by intramuscularly injecting an analgesic-anesthetic at the femoral regions thereof and by simultaneously dropping a local anesthetic in the eyes, the sclerocornea of each animal was dissected over a length of 3.5 mm, followed by excising a circular piece of the arterior capsule at a diameter of about 5 mm from the lens capsule under perfusion of the ophthalmic buffer solution BSS, removal of the lens nuclei and the cortex by the ultrasonic emulsification and aspiration technique, swelling the lens capsule by injecting a viscoelastic substance, then widening the incised port of the sclerocornea to about 7 mm and transplantation, into the lens capsule, of a poly(methyl methacrylate) intraocular lens provided with an optical part having a diameter of 6 mm. After the removal of the viscoelastic substance under vacuum suction, the incised wound of the sclerocornea was sutured with three stitches using a 9-0 nylon suture to thus complete the operation. After the completion of the operation, an eye drop and an ointment containing an antibiotic agent were administered to the conjunctiva. The right eyes of these three animals were subjected to the ultrasonic emulsification and aspiration technique and the transplantation of an intraocular lens.
# One (A) out of these three animals was treated with a calcitriol solution in a rate of 1 to 2 drops/dose/day. The calcitriol solution used was prepared by dissolving and diluting calcitriol (1α,25-dihydroxy vitamin D) in ethanol and then further diluting (1:100) the resulting dilute solution, to a calcitriol concentration of 0.5 μg/ml, with an ophthalmic oil base consisting of purified sesame oil. One (B) out of the three animals was treated by orally administering the calcitriol solution in a rate of 1 ml/dose/day using a dropping pipette. The remaining one (C) out of the three animals was treated by dropping ophthalmic purified sesame oil free of any calcitriol in the right eye in a rate of 1 to 2 drops/dose/day. After the mydriasis at 1, 4, 7, 14 and 28 days from the operation, the lens capsule, aqueous humor and intraocular lens for each animal were inspected for the turbidity through the observation under a slit lamp microscope.
# [3] = animal A, eye drop, after 7 days from the operation
smiles,measurement,setting,value
"C=C1/C(=C\C=C2/CCC[C@]3(C)[C@@H]([C@H](C)OCCC(C)(C)O)CC[C@@H]23)C[C@@H](O)C[C@@H]1O [OCT, 22-oxa-1β,25-dihydroxy vitamin D3]",degree of turbidity relative to that observed for the control group,laser-irradiated cornea,about ½
same,"degree of corneal turbidity, rating 0 (no turbidity) to 4 (complete opacification), average of four animals","laser-irradiated cornea; right eye, evaluated after 7 and 15 days, control group 3.5",2.0
"C=C1/C(=C\C=C2/CCC[C@]3(C)[C@@H]([C@H](C)CCCC(C)C)CC[C@@H]23)C[C@@H](O)C[C@@H]1O [alpha calcidol, 1α-monohydroxy vitamin D]",opacity of the laser-irradiated site under the slit lamp microscope,"[1]; Group A, right eye, eye drop 0.01 μg/drop (0.5 μg/ml), one drop/dose/day from 24 hours after irradiation, observed after 4, 7 and 12 days, versus BSS control (Group B)",quite slight opacity at the peripheral edge of the laser-irradiated site
same,"piling up growth of the corneal epithelial cells, sliced cornea under a light microscope","[1]; Group A, right eye, eye drop 0.01 μg/drop, one drop/dose/day, control Group B ran up to 10 layers",not observed such tendency as piling up growth
same,"side effect (bleeding, fibrin-deposition, corneal haze/opacity, intraocular inflammation)","[1]; Test Example 1, eye drop",not observed any side effect
"C=C1/C(=C\C=C2/CCC[C@]3(C)[C@@H]([C@H](C)CCCC(C)(C)O)CC[C@@H]23)C[C@@H](O)C[C@@H]1O [calcitriol, 1α,25-dihydroxy vitamin D]","side effect (bleeding, fibrin-deposition, corneal haze/opacity, intraocular inflammation)","[2]; Test Example 2, eye drop or oral",not observed any side effect
same,"transparency, eye drop (animal A) compared with oral (animal B)",[2]; after 28 days from the operation,better than that observed for the animal B
same,posterior synechia,"[2]; animal A, eye drop",did not cause any posterior synechia
same,fibrin deposition in the anterior chamber,"[2]; animal A, eye drop 0.5 μg/ml in sesame oil, 1 to 2 drops/dose/day",very low as compared with that observed for the animal C
same,transparency of the anterior capsule,[2]; [3],maintained desired transparency
same,wrinkling and opacity of the anterior capsule,[2]; [3],only slight wrinkling of the anterior capsule and opacity of the periphery thereof
same,opacity and wrinkling of the anterior capsule,"[2]; animal A, eye drop, after 28 days from the operation",slight opacity and wrinkling of the anterior capsule
same,posterior synechia,"[2]; animal B, oral",did not cause any posterior synechia
same,fibrin deposition in the anterior chamber,"[2]; animal B, oral 1 ml/dose/day of 0.5 μg/ml solution",very low as compared with that observed for the animal C
same,opacity and wrinkling of the anterior capsule,"[2]; animal B, oral, after 28 days from the operation",slight opacity and wrinkling of the anterior capsule
